# Reference: US20260131007A1, “Mannose 6-Phosphate Receptor Binding Compounds for the Degradation of Extracellular Proteins” (Avilar Therapeutics, Inc., priority 2023, published 2026)
# Counter-ions that a name gives are not always drawn.
# Target: T1, Insulin-like growth factor 2 receptor (IGF-1IR, cation-independent mannose-6-phosphate receptor, CI-MPR; hIGF-IIR) (Homo sapiens, UniProt P11717)
# T1 construct: purchased R&D Systems 6418-GR
# Assay: HTRF-based ternary complex inhibition assay for relative affinity of IGF-IIR ligands
# Settings: competition with MTAC probe for His-tagged hIGF-IIR; biotinylated IgG1; apparent binding affinity; read-out: TCF INH (HTRF) IC50
# Description: The apparent binding affinity of Insulin-like growth factor 2 receptor (IGF-1IR, also called the cation- independent mannose-6-phosphate receptor (CI-MPR)) ligands was determined indirectly by competing with a probe molecule for binding to IGF-1IR. The probe is a Mannose 6-Phosphate Ligand (“Ligand”) and binds to hIGF-IIR and IgG1 to form a hIGF-IIR: Ligand: IgG1 ternary complex. The ternary complex was detected by an HTRF readout. The ternary complex is disrupted in the presence of IGF-1IR ligand, resulting in decreased HTRF signal. IGF-1IR ligands of 3-fold dilution series were prepared from 10 mM DMSO stock on a 384-well LDV microplate using Echo Acoustic Liquid Handler (Beckman Coulter Life Sciences) followed by transfer of 600 nL of the solutions to an OptiPlate 384-well microplate (PerkinElmer, 6007290). Manose-6-phosphate (M6P; J&K, 530168) and glucose-6-phosphate (G6P; Sigma, V900924) were prepared from 100 mM stock in the same manner and were used as positive and negative controls, respectively. The wells used as 0% and 100% inhibition controls were prepared by adding 600 nL DMSO. 20 nL of 50 μM MTAC probe was transferred to all wells except the wells used as 100% Inhibition control. 9.4 μL working solution containing 65.1 nM of Biotinylated-IgG1 (Viva 20211108) and 65.1 nM of His-tagged hIGF-IIR (R&D Systems, 6418-GR) in assay buffer 50 mM Tris, pH 7.5, 150 mM NaCl, 50 mM CaCl2, 0.01% Tween-20 was transferred to all wells. The plate was incubated at room temperature for 60 min with gentle shaking to allow molecular interaction to reach equilibration. Following this, 10 μL of HTRF detection solution containing 15 nM Streptavidin-d2 (PerkinElmer, 610SADLA) and 0.7 nM MAb Anti 6HIS—Tb cryptate (PerkinElmer, 61HISTLA) in PPI Terbium detection buffer (PerkinElmer, 61DB10RDF) was added. The assay plate was incubated at room temperature with gentle shaking for 60 min to allow HTRF signal to develop. The plate was gently spun on a centrifuge then placed on a EnVision plate reader (Perkin Elmer, EnVision 2104) to read fluorescence ratio of 665 nm/615 nm. Percent inhibitions were calculated with this equation: % I=100* [1−(X−100% I/(0% I−100% I)] where X is the […] in the presence of IGF-1IR ligand. The apparent binding affinity (presented as IC50) was calculated by fitting the % inhibition data with a non-linear 4-parameter inhibition equation using GraphPad Prism (GraphPad Software, LLC; version 9.4.1).
row,SMILES,IC50
1,"C=CCP(=O)(O)CC[C@H]1OC(Oc2ccc(OC)cc2)[C@@H](O)[C@@H](O)[C@@H]1O (stereo partly drawn) [Compound A52, allyl(2-((2R,3S,4S,5S)-3,4,5-trihydroxy-6-(4-methoxyphenoxy)tetrahydro-2H-pyran-2-yl)ethyl)phosphinic acid]",10 to 100 µM
2,"NC[C@H]1O[C@H](O)[C@@H](O)[C@@H](O)[C@@H]1O [Compound A41, (2S,3S,4S,5S,6R)-6-(aminomethyl)tetrahydro-2H-pyran-2,3,4,5-tetraol hydrochloride]",10 to 100 µM
3,"O=C(NS(=O)(=O)CC[C@H]1O[C@H](O)[C@@H](O)[C@@H](O)[C@@H]1O)c1ccno1 [Compound A11, N-((2-((2R,3S,4S,5S,6S)-3,4,5,6-tetrahydroxytetrahydro-2H-pyran-2-yl)ethyl)sulfonyl)isoxazole-5-carboxamide]",10 to 100 µM
4,"COc1ccc(O[C@H]2O[C@H](CCP(=O)(O)Cc3c(F)cccc3Cl)[C@@H](O)[C@H](O)[C@@H]2O)cc1 [Compound A51, (2-chloro-6-fluorobenzyl) (2-((2R,3S,4S,5S,6R)-3,4,5-trihydroxy-6-(4-methoxyphenoxy)tetrahydro-2H-pyran-2-yl)ethyl)phosphinic acid]",< 10 µM
5,"CC(C)(C)OC(=O)N1CCC(n2cc([C@H]3O[C@H](CCP(=O)(O)O)[C@@H](O)[C@H](O)[C@@H]3O)nn2)CC1 [Compound A85, (2-((2R,3S,4S,5S,6R)-6-(1-(1-(tert-butoxycarbonyl)piperidin-4-yl)-1H-1,2,3-triazol-4-yl)-3,4,5-trihydroxytetrahydro-2H-pyran-2-yl)ethyl)phosphonic acid]",< 10 µM
6,"CS(=N)(=O)CC[C@H]1O[C@H](O)[C@@H](O)[C@@H](O)[C@@H]1O (stereo partly drawn) [Compound A1, imino(methyl) (2-((2R,3S,4S,5S,6S)-3,4,5,6-tetrahydroxytetrahydro-2H-pyran-2-yl)ethyl)-16-sulfanone]",< 10 µM
7,"O=P(O)(O)CC[C@H]1O[C@H](c2cn(C3CCNCC3)nn2)[C@@H](O)[C@@H](O)[C@@H]1O [Compound A86, (2-((2R,3S,4S,5S,6R)-3,4,5-trihydroxy-6-(1-(piperidin-4-yl)-1H-1,2,3-triazol-4-yl)tetrahydro-2H-pyran-2-yl)ethyl)phosphonic acid]",< 10 µM
8,"C#C[C@H]1O[C@H](CCP(=O)(O)O)[C@@H](O)[C@H](O)[C@@H]1O [Compound A20, (2-((2R,3S,4S,5S,6R)-6-ethynyl-3,4,5-trihydroxytetrahydro-2H-pyran-2-yl)ethyl)phosphonic acid]",< 10 µM
9,"COc1ccc(OC2O[C@H](CCP(=O)(O)CC3CCCC3)[C@@H](O)[C@H](O)[C@@H]2O)cc1 (stereo partly drawn) [Compound A82, (cyclopentylmethyl) (2-((2R,3S,4S,5S)-3,4,5-trihydroxy-6-(4-methoxyphenoxy)tetrahydro-2H-pyran-2-yl)ethyl)phosphinic acid]",< 10 µM
10,"COc1ccc(OC2O[C@H](CCP(=O)(O)CC3CC3)[C@@H](O)[C@H](O)[C@@H]2O)cc1 (stereo partly drawn) [Compound A56, (cyclopropylmethyl) (2-((2R,3S,4S,5S)-3,4,5-trihydroxy-6-(4-methoxyphenoxy)tetrahydro-2H-pyran-2-yl)ethyl)phosphinic acid]",< 10 µM
11,"CCCP(=O)(O)CC[C@H]1OC(Oc2ccc(OC)cc2)[C@@H](O)[C@@H](O)[C@@H]1O (stereo partly drawn) [Compound A57, propyl(2-((2R,3S,4S,5S)-3,4,5-trihydroxy-6-(4-methoxyphenoxy)tetrahydro-2H-pyran-2-yl)ethyl)phosphinic acid]",< 10 µM
12,"NC[C@H]1O[C@H](Oc2ccccc2)[C@@H](O)[C@@H](O)[C@@H]1O [Compound A2, (2R,3S,4S,5S,6R)-2-(aminomethyl)-6-phenoxytetrahydro-2H-pyran-3,4,5-triol]",10 to 100 µM
13,"COc1ccc(OC2O[C@H](CCP(=O)(O)C(O)c3ccccc3)[C@@H](O)[C@H](O)[C@@H]2O)cc1 (stereo partly drawn) [Compound A74, (hydroxy (phenyl)methyl) (2-((2R,3S,4S,5S)-3,4,5-trihydroxy-6-(4-methoxyphenoxy)tetrahydro-2H-pyran-2-yl)ethyl)phosphinic acid]",< 10 µM
14,"CC(=O)N1C[C@@H](O)[C@@H](O)[C@H](O)[C@H]1CCP(=O)(O)O [Compound A61, (2-((2R,3R,4R,5R)-1-acetyl-3,4,5-trihydroxypiperidin-2-yl)ethyl)phosphonic acid]",10 to 100 µM
15,"O=P(O)(CC[C@H]1O[C@H](Oc2ccccc2)[C@@H](O)[C@@H](O)[C@@H]1O)Cc1c(F)cccc1F [Compound A42, (2,6-difluorobenzyl) (2-((2R,3S,4S,5S,6R)-3,4,5-trihydroxy-6-phenoxytetrahydro-2H-pyran-2-yl)ethyl)phosphinic acid]",< 10 µM
16,"COc1ccc(OC2O[C@H](CCP(=O)(O)Cc3ccccc3C#N)[C@@H](O)[C@H](O)[C@@H]2O)cc1 (stereo partly drawn) [Compound A49, (2-cyanophenyl)methyl-[2-[(2R,3S,4S,5S)-3,4,5-trihydroxy-6-(4-methoxyphenoxy)tetrahydropyran-2-yl]ethyl]phosphinic acid]",< 10 µM
17,"C#CCOc1cccc(CP(=O)(O)CC[C@H]2OC(Oc3ccc(OC)cc3)[C@@H](O)[C@@H](O)[C@@H]2O)c1 (stereo partly drawn) [Compound A59, (3-prop-2-ynoxyphenyl)methyl-[2-[(2R,3S,4S,5S)-3,4,5-trihydroxy-6-(4-methoxyphenoxy)tetrahydropyran-2-yl]ethyl]phosphinic acid]",< 10 µM
18,"COCP(=O)(O)CC[C@H]1O[C@H](Oc2ccccc2)[C@@H](O)[C@@H](O)[C@@H]1O [Compound A45, methoxymethyl-[2-[(2R,3S,4S,5S,6R)-3,4,5-trihydroxy-6-phenoxy-tetrahydropyran-2-yl]ethyl]phosphinic acid]",10 to 100 µM
19,"O=P(O)(CC[C@H]1O[C@H](Oc2ccc3c(c2)Cc2ccccc2-3)[C@@H](O)[C@@H](O)[C@@H]1O)Cc1c(F)cccc1F [Compound A79, (2-((2R,3S,4S,5S,6R)-6-((9H-fluoren-2-yl)oxy)-3,4,5-trihydroxytetrahydro-2H-pyran-2-yl)ethyl) (2,6-difluorobenzyl)phosphinic acid]",< 10 µM
20,"COc1ccc(OC2O[C@H](CCP(=O)(O)CC(F)(F)F)[C@@H](O)[C@H](O)[C@@H]2O)cc1 (stereo partly drawn) [Compound A80, (2,2,2-trifluoroethyl) (2-((2R,3S,4S,5S)-3,4,5-trihydroxy-6-(4-methoxyphenoxy)tetrahydro-2H-pyran-2-yl)ethyl)phosphinic acid]",10 to 100 µM
21,"O=P(O)(CC[C@H]1O[C@H](OC2CCCCC2)[C@@H](O)[C@@H](O)[C@@H]1O)Cc1ccccc1O [Compound A47, 2-[(2R,3S,4S,5S,6S)-6-(cyclohexoxy)-3,4,5-trihydroxy-tetrahydropyran-2-yl]ethyl-[(2-hydroxyphenyl)methyl]phosphinic acid]",10 to 100 µM
22,"N#CNC(=O)CC[C@H]1O[C@H](Oc2ccccc2)[C@@H](O)[C@@H](O)[C@@H]1O [Compound A3, N-cyano-3-((2R,3S,4S,5S,6R)-3,4,5-trihydroxy-6-phenoxytetrahydro-2H-pyran-2-yl)propanamide]",10 to 100 µM
23,"C#CCP(=O)(O)CC[C@H]1OC(Oc2ccc(OC)cc2)[C@@H](O)[C@@H](O)[C@@H]1O (stereo partly drawn) [Compound A77, prop-2-yn-1-yl(2-((2R,3S,4S,5S)-3,4,5-trihydroxy-6-(4-methoxyphenoxy)tetrahydro-2H-pyran-2-yl)ethyl)phosphinic acid]",10 to 100 µM
